Test results taken from publication PMC4403932 (Journal of Medicinal Chemistry, 2015).
Values joined by “and” are separate entries in the source; they are usually repeats but may differ in a detail not shown here. Identical values can stand only once. “Also recorded” adds a separate entry of the source. Like-named read-outs stand apart in the source and are kept apart here.

Legend:
[1] = test system: HEK293 cells; experiment: In vitro cytotoxicity (CellTiter-Glo); format: cell-based, human; conditions: cell viability, 0.005-33 μM
Procedure: Following NanoBRET substrate addition and NanoBRET measurements, to the same wells an equal volume of CellTiter-Glo reagent (Promega) was added and the plates were incubated for 30 min at room temperature. Total luminescence was measured, and relative compound toxicity was determined by comparing the RLUs (relative light units) of a sample containing DMSO vehicle (in the absence of compound 11) to the RLUs of the samples containing 0.005–33 μM compound 11.

[2] = target: T1, BRD9 bromodomain (Homo sapiens, UniProt Q9H8M2); experiment: NanoBRET assay, NanoLuc-BRD9 bromodomain / histone H3.3-HaloTag in HEK293 cells; format: cell-based; conditions: 0.005-33 μM, 18 h, read-out: cellular (apparent) IC50, displacement of NanoLuc-BRD9 bromodomain from histone H3.3
T1 construct: Q9H8M2-BRD amino acids 120–240; expressed in transfected cells; host or cells: HEK293
T1 sequence (Q9H8M2 120-240): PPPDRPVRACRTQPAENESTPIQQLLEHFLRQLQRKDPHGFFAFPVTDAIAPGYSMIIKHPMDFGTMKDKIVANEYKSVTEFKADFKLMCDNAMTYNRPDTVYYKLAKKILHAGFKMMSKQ
Procedure: (§1) Twenty hours post-transfection 2 × 10^4 cells were trypsinized, washed with PBS, and exchanged into media containing phenol red-free DMEM, 10% FBS in the absence (control sample), or the presence (experimental sample) of 100 nM NanoBRET 618 fluorescent ligand (Promega). Cell density was adjusted to 2 × 10^5 cells/mL and then replated in a 96-well assay white plate (Corning Costar no. 3917). At the time of replating compound 7d or 11 were added at a final concentration spanning from 0.005 to 33 μM and the plates were incubated for 18 h at 37 °C in the presence of 5% CO2. NanoBRET substrate (Promega) was added to both control and experimental samples at a final concentration of 10 μM. Readings were performed within 5 min using the CLARIOstar reader (BMG Lifetechnologies) equipped with 450/80 nm bandpass and 610 nm long-pass filters. A corrected BRET ratio was calculated and is defined as the ratio of the emission at 610 nm/450 nm for experimental samples (i.e., those treated with NanoBRET fluorescent ligand) subtracted by and the emission at 610 nm/450 nm for control samples (not treated with NanoBRET fluorescent). BRET ratios are expressed as milliBRET units (mBU), where 1 mBU corresponds to the corrected BRET ratio multiplied by 1000.

[3] = target: T2, BRD3(1) (Homo sapiens, UniProt Q15059); experiment: Isothermal titration calorimetry, BRD3(1); format: binding; conditions: for LE (ligand efficiency): LE = ΔG/N, N number of non-hydrogen atoms
T2 construct: Fragments were tested in a thermal shift assay against bromodomains of the BET subfamily; made in house
T2 sequence (Q15059 34-140 limits assumed): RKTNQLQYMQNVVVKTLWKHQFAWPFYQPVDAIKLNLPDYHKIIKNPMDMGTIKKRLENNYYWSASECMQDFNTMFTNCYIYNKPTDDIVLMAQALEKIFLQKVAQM
Procedure: (§2) Experiments were carried out on an ITC200 titration microcalorimeter from MicroCal, LLC (GE Healthcare) equipped with a Washing module, with a cell volume of 0.2003 mL, and a 40 μL microsyringe. Experiments were carried out at 15 °C while stirring at 1000 rpm, in ITC buffer (50 mM HEPES, pH 7.5 (at 25 °C), 150 mM NaCl). The microsyringe was loaded with a solution of the protein sample (300−740 μM protein for BRD9 and BRD4(1), respectively, in ITC buffer) and was carefully inserted into the calorimetric cell which was filled with an amount of the ligand (0.2 mL, 20–25 μM in ITC buffer). The system was first allowed to equilibrate until the cell temperature reached 15 °C, and an additional delay of 60 s was applied. All titrations were conducted using an initial control injection of 0.3 μL followed by 38 identical injections of 1 μL with a duration of 2 s (per injection) and a spacing of 120 s between injections. The titration experiments were designed in such a fashion as to ensure complete saturation of the proteins before the final injection. The heat of dilution for the proteins was independent of their concentration and corresponded to the heat observed from the last injection, following saturation of ligand binding, thus facilitating the estimation of the baseline of each titration from the last injection. The collected data were corrected for protein heats of dilution (measured on separate experiments by titrating the proteins into ITC buffer) and deconvoluted using the MicroCal Origin software supplied with the instrument to yield enthalpies of binding (ΔH) and binding constants (KB) in the same fashion as that previously described in detail by Wiseman and co-workers.[66] Thermodynamic parameters were calculated using the basic equation of thermodynamics (ΔG = ΔH – TΔS = −RT ln KB, where ΔG, ΔH, and ΔS are the changes in free energy, enthalpy, and entropy of binding, respectively). In all cases a single binding site model was employed, supplied with the MicroCal Origin software package.

[4] = target: T3, full length BRD4 (Homo sapiens, UniProt O60885); experiment: NanoBRET assay, NanoLuc-BRD4 full-length / histone H3.3-HaloTag in HEK293 cells; format: cell-based; conditions: up to 33 μM, 18 h
T3 construct: NanoLuc-fused full length BRD4 (UniProt code O60885); expressed in transfected cells; host or cells: HEK293
Procedure: as §1

[5] = target: T4, BRD4(1) (Homo sapiens, UniProt O60885); experiment: Isothermal titration calorimetry, BRD4(1); format: binding; conditions: for Kd / TΔS / ΔG / N (stoichiometry) / ΔHobs: ITC; for LE (ligand efficiency): LE = ΔG/N, N number of non-hydrogen atoms
T4 construct: made in house
Procedure: as §2

[6] = target: T5, BRD2(2) (Homo sapiens, UniProt P25440); experiment: Protein stability (thermal) shift assay, BRD2(2); format: binding; conditions: compound 10 μM, protein 2 μM; average of triplicate
T5 construct: made in house
T5 sequence (P25440 344-453 limits assumed): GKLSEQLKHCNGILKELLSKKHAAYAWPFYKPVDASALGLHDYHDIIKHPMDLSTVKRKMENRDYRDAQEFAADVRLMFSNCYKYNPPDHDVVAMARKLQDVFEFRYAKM

[7] = 50 mM HEPES pH 7.5, 150 mM NaCl, 15 °C, reverse titration, triplicate, read-out: KD
[8] = read-out: dissociation constant

IC50 [2]	Kd ([3]; ITC, 50 mM HEPES pH 7.5, 150 mM NaCl, 15 °C, reverse titration, triplicate) [nM]	TΔS ([3]; ITC, 15 °C) [kcal/mol]	ΔG ([3]; ITC, 15 °C)	N (stoichiometry) ([3]; ITC, 15 °C, reverse titration)	ΔHobs ([3]; ITC, 15 °C, reverse titration)	LE (ligand efficiency) [3]	Kd [5, 7] [nM]	TΔS ([5]; 15 °C) [kcal/mol]	ΔG ([5]; 15 °C)	N (stoichiometry) ([5]; 15 °C, reverse titration)	ΔHobs ([5]; 15 °C, reverse titration)	Kd [5, 8]	LE (ligand efficiency) [5]	ΔTm at 10 µM [6] [°C]	SMILES	cytotoxicity toward HEK293 cells (in words) [1]	displacement of full-length BRD4 from histone H3.3 (in words) [4]
3500 nM	2040 ± 105	0.33	–7.50 kcal/mol	1.01 ± 0.009	–7.17 ± 0.09 kcal/mol	0.39	4650 ± 197	0.94	–7.03 kcal/mol	0.99 ± 0.018	–6.09 ± 0.14 kcal/mol	4700 nM and 4650 nM	0.37	0.9	COc1ccc(Br)cc1-c1nc(N)nc2[nH]cnc12 [Compound 7d, 2-Amino-6-(5-bromo-2-methoxyphenyl)-9H-purine]	not cytotoxic	fail to elicit the same effect; also recorded: not completely displaced; also recorded: failing to displace
480 nM and 477 nM	–	0.33	–7.50 kcal/mol	1.01 ± 0.009	–7.17 ± 0.09 kcal/mol	0.38	1370 ± 29	1.34	–7.73 kcal/mol	1.09 ± 0.002	–6.39 ± 0.02 kcal/mol	1400 nM and 1370 nM	0.39	4.3	Nc1nc(-c2cc(Br)cc3c2OCC3)c2nc[nH]c2n1 [Compound 11, 2-Amino-6-(5-bromo-2,3-dihydrobenzo[b]furan-7-yl)-9H-purine]	did not observe any cytotoxicty; also recorded: not cytotoxic; also recorded: not toxic	fail to elicit the same effect; also recorded: not completely displaced; also recorded: failing to displace
